The values that follow come from patent US8784911B2, “Compositions for treatment and prevention of diabetic complications using Osteomeles schwerinae” (Korea Institute of Oriental Medicine, priority 2009, dated 2014).

Where two headings read alike, the source gives them in different places.

The target in series [1] is T1, aldose reductase (Rattus norvegicus, UniProt P07943).
T1 construct: To obtain natural aldose reductase from eyeballs of SD rat; from tissue; host or cells: lens of Sprague-Dawley rat (homogenate supernatant)
Description: In vitro inhibitory effect on aldose reductase activity. The series is classed as biochemical, SD rat. Particulars: for inhibition of aldose reductase activity: compounds isolated from Osteomeles schwerinae extract.
Description: To obtain natural aldose reductase from eyeballs of SD rat (Sprague-Dawley rat, 250-280 g) by the method of Dufrane (1984), the extracted lens were pulverized together with 135 mM Na, K-phosphate buffer (pH 7.0), and 10 mm 2-mercaptoethanol using homogenizer and sonicater. After performing centrifugation at 14000 rpm for 30 minutes, the supernatant was filtered with 0.2 μm filter at 4° C. Quantification was performed by Lowry method using BSA as a protein source of enzyme. The mixture of 135 mM Na, K-phosphate buffer (pH 7.0), 100 mM lithium sulfate, 0.03 mM NADPH, 0.04 mM DL-glyceraldehyde and 100 μg/ml enzyme was dissolved in 0.1% DMSO, which was added to 50 μl of each sample diluted at different concentrations. Total volume of the mixture was adjusted to 1 ml, followed by reaction at 37° C. for 10 minutes. […] The reaction was terminated by adding 0.3 ml of 0.5 N HCl, to which 1 in of 6 M NaOH supplemented with 10 mM imidazole wad added, followed by reaction at 60° C. for 10 minutes. Then, conversion rate (NADP fluorescent product) was measured. Each sample was tested in triplicate. Inhibition effect was measured by using spectrofluorophotometric detector (Ex. 360 nm, Em. 460 nm, Bio-TEK, Synergy HT, USA) and the results were presented as IC50.

Series [2] concerns advanced glycation endproduct generation (bovine serum albumin with fructose and glucose). The series can be described thus: In vitro inhibitory effect on advanced glycation endproduct generation (BSA + fructose/glucose, fluorescence). The series is classed as biochemical. As to the method:
Inhibitory effect of Osteomeles schwerinae small twig/leaf extract, fractions thereof obtained from each of hexane layer, ethyl acetate layer, butanol layer and water layer of the extract, and Osteomeles schwerinae seed extract on advanced glycation endproduct generation was investigated in vitro. Bovine serum albumin (BSA, Sigma, USA) was used as a protein source. BSA was added to 50 mM phosphate buffer (pH 7.4) at the concentration of 10 mg/ml. As a sugar source, the mixed solution of 0.2 M fructose and 0.2 M glucose was used. The mixed solution of fructose and glucose was added to the BSA solution. Osteomeles schwerinae small twig/leaf extract was prepared at different concentrations of 5 μg/ml, 10 μg/ml and 25 μg/ml. Hexane layer was also prepared at the concentrations of 10 μg/ml, 25 μg/ml and 50 μg/ml. Ethyl acetate layer was prepared at different concentrations of 5 μg/ml, 10 μg/ml and 25 μg/ml. Butanol layer and water layer were respectively prepared at the concentrations of 2.5 μg/ml, 5 μg/ml and 10 μg/ml. Osteomeles schwerinae seed extract was also prepared at different concentrations of 5 μg/ml, 10 μg/ml and 25 μg/ml. (All of those compounds were dissolved in DMSO, to which 15% tween 80 was added. At this time, the content of DMSO was 0.2%). Each extract or fraction was mixed with the mixed solution of BSA and sugars, followed by culture at 37° C. for 14 or 28 days. At this time, 0.02% sodium azide and antimycotics were added thereto as the antibacterial and antifungal agent. For the control, the mixed solution of BSA and sugars was cultured. The blank groups of each experimental and the control were composed as the above but not cultured. For the positive control, which would be used as an index for the comparison of the effect, aminoguanidine was used. To avoid error, 4 of each culture solution were prepared. 14 or 28 days later, the content of advanced glycation endproducts generated in each culture solution was measured and compared. AGEs therein were fluorescent and brown colored. They have physiochemical properties for the cross-linking and also have ligand that can be recognized by cell membrane receptor. The amount of AGEs having the said properties was measured with microplate reader (Excitation: 350 nm, Emission: 450 nm) to analyze the inhibitory effect on the generation of AGEs (Vinson, J. A. et al., J. Nutr. Biochem., 7: 659-663, 1996).
Inhibitory rate of generation was calculated by the following formula. Inhibitory rate of generation(%)=100−(fluorescence intensity of experimental group sample−fluorescence intensity of empty sample)/(fluorescence intensity of control group sample−fluorescence intensity of control group empty sample)×100
Aminoguanidine was dissolved in distilled water and then cultured at the concentrations of 37 μg/ml, 55.5 μg/ml and 74 μg/ml at 37° C. for 14 days and also cultured at the concentrations of 18.5 μg/ml, 37.0 μg/ml and 92.5 μg/ml for 28 days by the same manner as described above. The amount of advanced glycation endproducts generated in each culture solution was measured with microplate reader (Excitation: 350 nm, Emission: 450 nm). Inhibitory effect of Osteomeles schwerinae small twig/leaf extract, its fractions and Osteomeles schwerinae seed extract on advanced glycation endproduct generation was measured in vitro by the same manner as described above and the results are shown in Table 2.

Series [3] relates to type I diabetes animal model induced by streptozotocin (STZ). The series can be described thus: Type I diabetes animal model induced by streptozotocin. It is filed as in vivo, SD rat. As to the method:
Fully adapted (for 1 week) SD rats (6 weeks, 180-200 g) were used. After adaptation, the rats were fasted for 16 hours. Before the administration of samples, streptozotocin dissolved in 0.1 M citrate buffer (pH 4.5) was treated once by peritoneal injection (60 mg/kg). A week after the peritoneal injection, blood glucose level was measured at fasted or non-fasted state. Rats showing blood glucose level of at least 250 mg/dl at fasted state were selected and distributed fairly with considering the average. 5 groups were prepared as follows: the normal group treated with nothing (presented as Nor), the normal group treated with 200 mg/kg of Osteomeles schwerinae extract (presented as N+OS-141), the group induced with diabetes (presented as DM), the diabetes group treated with 100 mg/kg of Osteomeles schwerinae extract (presented as OS-100), and the positive control group treated with aminoguanidine (presented as AG). Osteomeles schwerinae extract and aminoguanidine were dissolved in water, which were administered orally to the rats every day (5 ml/kg) for 8 weeks. 8 weeks later, the animals were fasted, followed by autopsy. Blood was drawn from saphenons vein. Plasma was separated by centrifuging the whole blood at 3000 rpm at 4° C. The plasma was stored at −70° C. for the later use for data analysis. Each organ was weighed and frozen by using liquid nitrogen, which was stored at 70° C.
Urine was taken for 24 hours on the last week before autopsy to comparatively observe renal function indices and oxidative stress factors. ELISA was performed to measure AGEs and podocyte (synaptopodin). Urine was mixed with coating buffer (50 mM carbonate buffer, pH 9.6) at the ratio of 1:2, which was distributed in 96 well plate (100 μl/well). After incubating the plate at 37° C. for 3 hours, the plate was washed with 0.05% PBST three times, and blocked with 3% skim milk. The plate was stood for one hour and then washed. AGEs (Transgenic, Japan) and synaptopodin (Santa Cruz, USA) antibody were diluted at the ratio of 1:1000 respectively, followed by loading in each well of the plate by 100 μl, which stood at 37° C. for 2 hours. After washing the plate with 0.05% PBST, HRP-conjugated 2nd antibody was loaded in each well of the plate by 100 μl, which stood at 37° C. for 1 hour. 3,3′,5,5′-tetramethylbenzidine (TMB) was added in each well of the plate by 100 μl. Five minutes later, reaction termination solution (1M H2SO4) was added in each well of the plate by 100 μl and then OD was measured with ELISA reader. Albuminuria and creatinine (Cr) used as renal function indices were measured.
Kidney was extracted during autopsy, which was fixed in 10% neutralized formalin, followed by dehydration. The kidney was substituted with xylene three times, followed by embedding with paraffin. The embedded tissue block was cut into 4 μm sections, which were placed on microscope slide. PAS staining was performed to observe morphological changes. The stained slide was observed under optical microscope. […] To investigate fibrosis by collagen infiltrated in kidney cortex, Masson's trichrome staining was performed. Multiple numbers of collagen stained as blue by Masson's trichrome were observed around glomerular, basement membrane and in interstitial area between renal tubules in the diabetes group, but the difference was not significant from that of the normal group. […] Histological changes were traced 8 weeks after inducing diabetes. […]

Setting [4] is: 24 h urine, last week, vs diabetes group.
The mark [5] stands for this setting: STZ diabetic rats, 100 mg/kg oral daily, 8 weeks.

Regarding `O=C(O)CC1(CC(=O)O)CCCC1` [3,3-tetramethyleneglutaric acid], the inhibition (in general, the drop in the measured response relative to a control, in per cent) at 3.72 µg/mL in series [1] (3.72 μg/ml (20 μm)) was 39.3 ± 4.17%. This compound also returned an inhibition at 4.66 µg/mL in series [1] (4.66 μg/ml (25 μm)) of 55.7 ± 3.25%. The compound further gave an inhibition at 5.59 µg/mL in series [1] (5.59 μg/ml (30 μm)) of 60.3 ± 1.39%. In addition, the IC50 in series [1] (read-out: inhibitory effect (IC50) on aldose reductase) is 24.1 µM; in series [1] (read-out: inhibitory effect (IC50, μg/ml) on aldose reductase (converted)) it was 24.2 µM.

`CC(=O)OC1C(c2c(O)cc(O)c3c(=O)cc(-c4ccc(O)cc4)oc23)OC(CO)C(O)C1O` (centres unmarked) [2-O-acetylvitexin]: the “inhibition of advanced glycation endproduct generation” value in series [2] (compounds isolated from Osteomeles schwerinae extract) is given as “confirmed to inhibit”. For the same compound, in series [1], the “inhibition of aldose reductase activity” value is “confirmed to inhibit”.

Turning to `C=C(C)C1CCC2(CO)CCC3(C)C(CCC4C5(C)CCC(OC(=O)C=Cc6ccc(O)c(O)c6)C(C)(C)C5CCC43C)C12` (stereo not drawn) [betuline-3β-yl-caffeate], the “inhibition of advanced glycation endproduct generation” value in series [2] was “confirmed to inhibit”. Moreover, the “inhibition of aldose reductase activity” value in series [1] is on record as “confirmed to inhibit”.

On to `N=C(N)NN` [Aminoguanidine], for which the entries for the “inhibitory effect (IC50, μg/ml)” value in series [2] (14 day) and in series [2] (28 day) were 71.13 µg/mL and 91.30 µg/mL, respectively. Besides, the “Inhibitory effect (%)” value in series [2] (14 day, 37 μg/ml) stood at 27.42 ± 1.51%; in series [2] (14 day, 55.5 μg/ml) it was 39.96 ± 0.90%; in series [2] (14 day, 74 μg/ml) it was 51.77 ± 1.91%; in series [2] (28 day, 18.5 μg/ml), 14.89 ± 4.11%; in series [2] (28 day, 37.0 μg/ml), 24.93 ± 3.46%; in series [2] (28 day, 92.5 μg/ml), 50.41 ± 0.41%. Moreover, the “expressions of AGEs and RAGE in kidney” value in series [3] (100 mg/kg) is listed as “significantly reduced”. Also, the “podocyte loss in glomerulus, synaptopodin and WT1 staining” value in series [3] (100 mg/kg, vs diabetes group) is listed as “podocyte loss was reduced”. For the same compound, in series [3] (8 weeks), the “fibrosis by collagen in kidney cortex, Masson's trichrome staining” value is on record as “such change was not peculiar”. In addition, the “glomerular basement membrane thickening, PAS staining” value in series [3] (8 weeks, vs untreated diabetes group) is recorded as “any change in glomerular basement membrane thickening was not observed”. Further, in series [3] (setting [4]), the “Albuminuria” value is “decreased significantly”. Besides, the “Urine alb/Cr” value in series [3] (setting [4]) was “decreased”. Further, in series [3] (STZ diabetic rats, 100 mg/kg), the “Body weight (g) Initial” value is 244.3 ± 4.02 g. In addition, the “ALT (U/L)” value in series [3] (setting [5]) is 158.9 ± 26.25 U/L. Further, in series [3] (setting [5]), the “AST (U/L)” value is 341.6 ± 70.90 U/L. For the same compound, in series [3] (setting [5]), the “Body weight (g) Final” value turned out to be 210.3 ± 9.98 g. Also, in series [3] (vs diabetes group), the “8-OHdG in kidney” value is on record as “reduced in the group treated with AG, but the decrease was not that significant”.

As to `C=C(C)C1CCC2(C(=O)O)CCC3(C)C(CCC4C5(C)CCC(OC(=O)C=Cc6ccc(O)c(O)c6)C(C)(C)C5CCC43C)C12` (stereo not drawn) [betulinic acid-3β-yl-caffeate], the “inhibition of advanced glycation endproduct generation” value in series [2] was “confirmed to inhibit”. In addition, in series [1], the “inhibition of aldose reductase activity” value was “confirmed to inhibit”.

Regarding `Oc1cc(O)c2c(c1)O[C@H](c1ccc(O)c(O)c1)[C@H](O)C2` [(−)-epicatechin], the “inhibition of advanced glycation endproduct generation” value in series [2] is recorded as “confirmed to inhibit”. Also, the “inhibition of aldose reductase activity” value in series [1] is recorded as “confirmed to inhibit”.
